Measured values from patent US20250281439A1, “USE OF L-ASPARTIC ACID BETA-HYDROXAMATE (L-ABH) IN PREPARATION OF DRUG FOR DIABETIC RETINOPATHY (DR) OR RETINOPATHY OF PREMATURITY (ROP)” (Wenzhou Medical University, priority 2024, published 2025).
“Also recorded” adds a separate entry of the source.

How the values were obtained:
db/db mice [1] = details: previous studies, cited from earlier work
[2] = Toxicity and tolerability of L-ABH on long-term oral administration; type: in vivo; details: no test described
From the text: L-aspartic acid β-hydroxamate (L-ABH) is a reversible serine racemase (SR) inhibitor. […] However, there is no clear report on whether the L-ABH could be used for retinal neuroprotection as well as prevention and treatment of retinopathy.

[3] = system: neonatal mice, hypoxia-induced retinopathy model; assay: OIR experiment, hypoxia-induced retinopathy model (isolectin staining, area of retinal angiogenesis); type: in vivo; details: intraperitoneal 7 mg/kg/day, 1 time a day from day 12 after birth, 5 days, vs OIR+Saline
Experimental: In this example, the effect of L-ABH was verified in a hypoxia-induced model. The hypoxia-induced retinopathy model could be used as a model of ROP and a late-stage model of DR. OIR experiment: neonatal mice on the 7th day after birth and mother mice were randomly divided into 3 groups. Two groups of the neonatal mice and the mother mice were placed in an OIR oxygen chamber. The neonatal mice in group 1 were intraperitoneally injected with L-ABH (7 mg/kg/day) 1 time a day from the 12th day after birth for 5 consecutive days, recorded as OIR+L-ABH (ip), with a total of 5 mice. While the neonatal mice in group 2 were intraperitoneally injected with an equal amount of saline every day from the 12th day, recorded as OIR+Saline, with a total of 5 mice. After 5 day of hyperoxia, hypoxia-induced models were established in the group 1 and the group 2. The mice in group 3 were fed normally and intraperitoneally injected with an equal volume of saline every day, recorded as WT, with a total of 5 mice. After 5 day of hyperoxia, the neonatal and the mother mice were taken out from the oxygen chamber. The neonatal and the mother mice in the 3 groups were raised normally for 5 days, then the neonatal mice were sacrificed, subjected to stretched preparation and stained with isolectin, and then analyzed for the area of retinal angiogenesis. […]

db/db mice [4] = assay: Visual electrophysiological examination (dark and light adaptation) after 18 weeks of gavage; type: in vivo; details: gavage 20 mg/kg/day, 1 time per day, vs db/db+water
Experimental: (§1) The 3-month-old db/db mice were randomly divided into two groups and subjected to intragastric gavage experiments: • group 1: gavage of water (denoted as db/db+water, 0.06 mL/10 g, 7 mice in total); • group 2: gavage of the L-ABH (denoted as db/db+L-ABH, 20 mg/kg/day, 10 mice in total).
(§2) Each group was gavaged 1 time per day according to the dosage for 18 weeks.
(§3) The 3-month-old wild-type mice were gavaged in the same manner as the group 1 (denoted as WT+water, 0.06 mL/10 g, 6 mice in total).
(1) After the gavage, visual electrophysiological examinations were conducted on the mice in each group.
In FIGS. 2A-2H, (dark adapted 0.01, dark adapted 3.0, dark adapted 10.0 and dark adapted 3.0 oscillatory potentials) show 4 tests under visual electrophysiological dark adaptation. […] In FIGS. 3A-3D, (light adapted 3.0, and light adapted 30 Hz flicker) show 2 tests after visual electrophysiological light adaptation.

db/db mice [5] = assay: OCT experiment (circular and linear scan; RNFL and total retinal thickness); type: in vivo; details: gavage 20 mg/kg/day, 18 weeks, vs db/db+water
Experimental: as §1, §2, §3
(2) After the gavage, an OCT experiment was conducted.
After the mice were anesthetized, tropicamide eye drops were used to dilate pupils, and after the mice entered deep anesthesia, ofloxacin was used to cover an ocular surface. The mice were placed on a mouse holder, their body position and the position knob were adjusted such that the lens was directly facing a center of mouse pupil. The position was fine-tuned from far to near such that an optic disc was located in a center of fundus image, and a focus was adjusted to make the image clear. A linear scan was conducted, where a linear scan position was moved to the vicinity of the optic disc, parameters and position were fine-tuned such that an OCT image passed through the optic disc and the optic disc was located in the middle, thus obtaining a cross-section of the retina from a temporal side to a nasal side. […]

db/db mice [6] = assay: Retinal digest preparation, PAS staining (endothelial cells, pericytes, acellular capillaries); type: in vivo; details: gavage 20 mg/kg/day, 18 weeks, vs db/db+water
Experimental: as §1, §2, §3
(4) After the gavage, the retinal digest preparation stretched preparation-PAS staining experiment was conducted.
After the mice were euthanized, eyeballs of the mice were removed and fixated with 4% PFA for 48 h, the retinas of the mice were separated and rinsed in ddH2O on a shaker at room temperature overnight, a fixative was removed, and the retinas were cut in half. The retinas were placed in 3% trypsin (prepared in 0.2 M Tris buffer, pH=7.4) and digested at 37° C. for 1 h. […] The nuclei were washed with running water, dehydrated routinely, transparentized with xylene, sealed with neutral gum, and then 6 to 8 fields of view were randomly selected for counting and observation under a microscope, and the number of pericytes and endothelial cells was calculated.

db/db mice [7] = assay: Retinal Brn3a immunofluorescence (RGC counting); type: in vivo; details: gavage 20 mg/kg/day, 18 weeks, vs db/db+water
Experimental: as §1, §2, §3
(3) After the gavage, retinal Brn3a immunofluorescence experiment was conducted.
After the mice were euthanized, periocular tissue of the mice was cut open, their eyeball of the mice was cut out and placed in a 5 mL centrifuge tube containing 4% PFA to allow fixation for 24 h, and the retinas were separated and cut into 4 petal shapes. The retinas were washed with PBS, permeabilized for 45 min, and blocked for 2 h. After removing a blocking solution, a Brn3a antibody was diluted (1:100) with PBS buffer containing 1% BSA, incubated overnight at 4° C., and then washed with the PBS. […] LSM 880 confocal laser microscope was used to take a full retinal mosaic, and then fluorescent images of the inner, middle, and outer 3 areas were intercepted on the 4 petals of the retina, that is, 12 areas of one retina were intercepted to allow fluorescence counting statistics. […]

[8] = oral 20 mg/kg/d for three months (patent ZL 202110755406.0); 20 mg/kg/day; cited from earlier work

## N[C@@H](CC(=O)NO)C(=O)O [L-ABH, L-aspartic acid β-hydroxamate]
db/db mice [1]; animal model of type II diabetes
  random blood glucose: reduce random blood glucose
db/db mice [1]
  oral glucose tolerance test (OGTT): significantly improve oral glucose tolerance test (OGTT)
  sensitivity of insulin tolerance test (ITT): increase sensitivity of insulin tolerance test (ITT)
[2]; long-term use
  nausea, vomiting, diarrhea, lactic acidosis: does not cause nausea, vomiting, diarrhea, or lactic acidosis
[2]
  irritating effect on gastrointestinal tract: no irritating effect on gastrointestinal tract
[3]
  hypoxia-induced retinal angiogenesis (neovascular area, avascular area): significantly reduce the hypoxia-induced retinal angiogenesis
db/db mice [4]
  functions of bipolar cells and amacrine cells in the retina (a-, b-wave, oscillatory potential, N1-P1 amplitudes): significantly improve the functions of bipolar cells and amacrine cells
db/db mice [5]
  degeneration of nerve fiber layer and medial nasal retina (RNFL thickness, total retinal thickness by OCT): protect the degeneration of a nerve fiber layer and a medial nasal retina
db/db mice [6]
  microvascular lesions (ratio of endothelial cells to pericytes, amount of acellular capillaries): significantly reduce the microvascular lesions
db/db mice [7]
  RGCs (Brn3a fluorescence counting) in inner, middle and outer retina: significantly protect the RGCs in the middle and outer retina
[8]
  hepatotoxicity and nephrotoxicity: not hepatotoxic or nephrotoxic; also recorded: without hepatotoxicity and nephrotoxicity
